biological target: T1, human TRPM8 (Homo sapiens, UniProt Q7Z2W7); experiment: Luminescence readout assay for measuring intracellular calcium (aequorin), antagonism of cold buffer activation; type: cell-based; conditions: CHO cells expressing human TRPM8; activation by cold buffer (<10° C.)
T1 construct: expressed in transfected cells; host or cells: CHO cells, T-REx tetracycline-inducible expression system (Invitrogen), co-transfected with pcDNA3.1 aequorin
Experimental: Luminescence readout assay for measuring intracellular calcium. Stable CHO cell lines expressing human TRPM8 were generated using tetracycline inducible T-REx™ expression system from Invitrogen, Inc (Carlsbad, Calif.). […] Twenty four hours before the assay, cells were seeded in 96-well plates and TRP channel expression was induced with 0.5 μg/ml tetracycline.

T1 sequence (Q7Z2W7 whole entry): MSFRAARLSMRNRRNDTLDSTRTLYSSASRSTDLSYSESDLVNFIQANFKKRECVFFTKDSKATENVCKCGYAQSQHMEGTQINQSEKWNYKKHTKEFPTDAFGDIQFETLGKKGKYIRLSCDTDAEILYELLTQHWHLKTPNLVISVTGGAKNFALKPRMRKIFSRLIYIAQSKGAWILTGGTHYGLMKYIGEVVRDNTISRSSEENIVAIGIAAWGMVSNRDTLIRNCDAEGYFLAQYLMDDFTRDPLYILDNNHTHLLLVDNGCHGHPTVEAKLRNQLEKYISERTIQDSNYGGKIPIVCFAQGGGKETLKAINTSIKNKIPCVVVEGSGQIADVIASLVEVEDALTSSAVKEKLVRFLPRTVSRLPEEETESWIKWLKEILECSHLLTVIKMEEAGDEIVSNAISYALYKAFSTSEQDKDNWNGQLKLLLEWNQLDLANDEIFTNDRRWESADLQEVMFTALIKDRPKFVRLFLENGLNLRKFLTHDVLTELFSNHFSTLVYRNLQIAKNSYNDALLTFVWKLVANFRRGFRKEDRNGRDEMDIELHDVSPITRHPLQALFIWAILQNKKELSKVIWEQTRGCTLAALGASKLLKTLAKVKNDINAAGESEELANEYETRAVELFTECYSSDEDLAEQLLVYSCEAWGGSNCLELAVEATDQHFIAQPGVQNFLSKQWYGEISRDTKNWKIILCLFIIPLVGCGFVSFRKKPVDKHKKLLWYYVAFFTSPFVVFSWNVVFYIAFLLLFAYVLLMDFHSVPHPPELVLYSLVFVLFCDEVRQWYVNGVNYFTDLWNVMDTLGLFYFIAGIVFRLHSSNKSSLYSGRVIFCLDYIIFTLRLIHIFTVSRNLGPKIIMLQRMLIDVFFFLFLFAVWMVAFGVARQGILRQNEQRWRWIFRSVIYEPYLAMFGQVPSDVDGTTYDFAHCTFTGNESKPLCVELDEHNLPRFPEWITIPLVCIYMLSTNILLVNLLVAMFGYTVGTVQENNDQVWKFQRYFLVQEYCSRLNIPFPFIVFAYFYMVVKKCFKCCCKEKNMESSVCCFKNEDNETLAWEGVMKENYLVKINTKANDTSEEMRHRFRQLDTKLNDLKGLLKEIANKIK

IC50, < 5 µM:
C[C@@H]1Cc2cccnc2[C@H](c2ccc(C(F)(F)F)cc2)N1C(=O)Nc1ccc(F)cc1 (racemic) [Example 48, (6R,8)-N-(4-Fluorophenyl)-6-methyl-8-(4-(trifluoromethyl)phenyl)-5,6-dihydro-1,7-naphthyridine-7(8H)-carboxamide and (6S,8R)—N-(4-fluorophenyl)-6-methyl-8-(4-(trifluoromethyl)phenyl)-5,6-dihydro-1,7-naphthyridine-7(8H)-carboxamide]
C[C@@H]1CN(C(=O)Nc2ccc(F)cc2)[C@H](c2ccc(C(F)(F)F)cc2)c2ncccc21 (racemic) [Example 49, (5S,8R)—N-(4-Fluorophenyl)-5-methyl-8-(4-(trifluoromethyl)phenyl)-5,6-dihydro-1,7-naphthyridine-7(8H)-carboxamide and (5R,8S)—N-(4-fluorophenyl)-5-methyl-8-(4-(trifluoromethyl)phenyl)-5,6-dihydro-1,7-naphthyridine-7(8H)-carboxamide]
CCOC(=O)N1C=Cc2ncccc2C1c1ccc(C(F)(F)F)cc1 (stereo not shown) [Example 1, Ethyl 5-(4-(trifluoromethyl)phenyl)-1,6-naphthyridine-6(5H)-carboxylate]
CCOC(=O)N1C=Cc2cccnc2C1c1ccc(C(F)(F)F)cc1 (stereo not shown) [Example 5, Ethyl 8-(4-(trifluoromethyl)phenyl)-1,7-naphthyridine-7(8H)-carboxylate]
CCOC(=O)N1C=Cc2nccnc2C1c1ccc(C(F)(F)F)cc1 (stereo not shown) [Example 12, Ethyl 5-(4-(trifluoromethyl)phenyl)pyrido[3,4-b]pyrazine-6(5H)-carboxylate]
COc1ccccc1NC(=O)N1CCc2cccnc2[C@H]1c1ccc(C(F)(F)F)cc1 [Example 20, (R)—N-(2-methoxyphenyl)-8-(4-(trifluoromethyl)phenyl)-5,6-dihydro-1,7-naphthyridine-7(8H)-carboxamide]
O=C(Nc1ccccc1F)N1CCc2cccnc2[C@H]1c1ccc(C(F)(F)F)cc1 [Example 21, (R)—N-(2-fluorophenyl)-8-(4-(trifluoromethyl)phenyl)-5,6-dihydro-1,7-naphthyridine-7(8H)-carboxamide]
O=C(NCCc1ccccc1)N1CCc2cccnc2[C@H]1c1ccc(C(F)(F)F)cc1 [Example 22, (R)—N-phenethyl-8-(4-(trifluoromethyl)phenyl)-5,6-dihydro-1,7-naphthyridine-7(8H)-carboxamide]
O=C(Nc1ccc(Cl)cc1)N1CCc2cccnc2[C@H]1c1ccc(C(F)(F)F)cc1 [Example 23, (R)—N-(4-chlorophenyl)-8-(4-(trifluoromethyl)phenyl)-5,6-dihydro-1,7-naphthyridine-7(8H)-carboxamide]
C[C@H](NC(=O)N1CCc2cccnc2[C@H]1c1ccc(C(F)(F)F)cc1)c1ccccc1 [Example 24, (R)—N—((S)-1-phenylethyl)-8-(4-(trifluoromethyl)phenyl)-5,6-dihydro-1,7-naphthyridine-7(8H)-carboxamide]
CN(C)c1ccc(NC(=O)N2CCc3cccnc3[C@H]2c2ccc(C(F)(F)F)cc2)cc1 [Example 25, (R)—N-(4-(dimethylamino)phenyl)-8-(4-(trifluoromethyl)phenyl)-5,6-dihydro-1,7-naphthyridine-7(8H)-carboxamide]
O=C(Nc1ccc(F)c(F)c1)N1CCc2cccnc2[C@H]1c1ccc(C(F)(F)F)cc1 [Example 26, (R)—N-(3,4-difluorophenyl)-8-(4-(trifluoromethyl)phenyl)-5,6-dihydro-1,7-naphthyridine-7(8H)-carboxamide]
Cc1noc(C)c1NC(=O)N1CCc2cccnc2[C@H]1c1ccc(C(F)(F)F)cc1 [Example 27, (R)—N-(3,5-dimethylisoxazol-4-yl)-8-(4-(trifluoromethyl)phenyl)-5,6-dihydro-1,7-naphthyridine-7(8H)-carboxamide]
CC(C)(C)NC(=O)N1CCc2cccnc2[C@H]1c1ccc(C(F)(F)F)cc1 [Example 28, (R)—N-tert-butyl-8-(4-(trifluoromethyl)phenyl)-5,6-dihydro-1,7-naphthyridine-7(8H)-carboxamide]
C[C@@H](NC(=O)N1CCc2cccnc2[C@H]1c1ccc(C(F)(F)F)cc1)c1ccccc1 [Example 29, (R)—N—((R)-1-phenylethyl)-8-(4-(trifluoromethyl)phenyl)-5,6-dihydro-1,7-naphthyridine-7(8H)-carboxamide]
O=C(Nc1ccccn1)N1CCc2cccnc2[C@H]1c1ccc(C(F)(F)F)cc1 [Example 30, (R)—N-(pyridin-2-yl)-8-(4-(trifluoromethyl)phenyl)-5,6-dihydro-1,7-naphthyridine-7(8H)-carboxamide]
O=C(Nc1ccc(-c2ccccc2)cc1)N1CCc2cccnc2[C@H]1c1ccc(C(F)(F)F)cc1 [Example 31, (R)—N-(4-biphenyl)-8-(4-(trifluoromethyl)phenyl)-5,6-dihydro-1,7-naphthyridine-7(8H)-carboxamide]
O=C(NCc1ccccc1)N1CCc2cccnc2[C@H]1c1ccc(C(F)(F)F)cc1 [Example 32, (R)—N-benzyl-8-(4-(trifluoromethyl)phenyl)-5,6-dihydro-1,7-naphthyridine-7(8H)-carboxamide]
O=C(Nc1cccc(F)c1)N1CCc2cccnc2[C@H]1c1ccc(C(F)(F)F)cc1 [Example 33, (R)—N-(3-fluorophenyl)-8-(4-(trifluoromethyl)phenyl)-5,6-dihydro-1,7-naphthyridine-7(8H)-carboxamide]
COc1ccc(NC(=O)N2CCc3cccnc3[C@H]2c2ccc(C(F)(F)F)cc2)cc1 [Example 35, (R)—N-(4-methoxyphenyl)-8-(4-(trifluoromethyl)phenyl)-5,6-dihydro-1,7-naphthyridine-7(8H)-carboxamide]
O=C(N[C@H]1C[C@H]1c1ccccc1)N1CCc2cccnc2[C@H]1c1ccc(C(F)(F)F)cc1 [Example 36, (R)—N-((1S,2S)-2-phenylcyclopropyl)-8-(4-(trifluoromethyl)phenyl)-5,6-dihydro-1,7-naphthyridine-7(8H)-carboxamide]
O=C(Nc1ccc2c(c1)OCO2)N1CCc2cccnc2[C@H]1c1ccc(C(F)(F)F)cc1 [Example 37, (R)—N-(benzo[d][1,3]dioxol-5-yl)-8-(4-(trifluoromethyl)phenyl)-5,6-dihydro-1,7-naphthyridine-7(8H)-carboxamide]
CC(C)NC(=O)N1CCc2nccnc2[C@H]1c1ccc(C(F)(F)F)cc1 [Example 38, (R)—N-Isopropyl-5-(4-(trifluoromethyl)phenyl)-7,8-dihydropyrido[3,4-b]pyrazine-6(5H)-carboxamide]
O=C(Nc1cccnc1)N1CCc2nccnc2[C@H]1c1ccc(C(F)(F)F)cc1 [Example 39, (R)—N-(Pyridin-3-yl)-5-(4-(trifluoromethyl)phenyl)-7,8-dihydropyrido[3,4-b]pyrazine-6(5H)-carboxamide]
O=C(Nc1ccc(C(F)(F)F)cc1)N1CCc2cccnc2[C@H]1c1ccc(C(F)(F)F)cc1 [Example 40, (R)—N,8-Bis(4-(trifluoromethyl)phenyl)-5,6-dihydro-1,7-naphthyridine-7(8H)-carboxamide]
N#Cc1ccccc1NC(=O)N1CCc2cccnc2[C@H]1c1ccc(C(F)(F)F)cc1 [Example 41, (R)—N-(2-Cyanophenyl)-8-(4-(trifluoromethyl)phenyl)-5,6-dihydro-1,7-naphthyridine-7(8H)-carboxamide]
N#Cc1cccc(NC(=O)N2CCc3cccnc3[C@H]2c2ccc(C(F)(F)F)cc2)c1 [Example 42, (R)—N-(3-Cyanophenyl)-8-(4-(trifluoromethyl)phenyl)-5,6-dihydro-1,7-naphthyridine-7(8H)-carboxamide]
O=C(OCc1ccccc1)N1C=Cc2cccnc2C1c1ccc(C(F)(F)F)cc1 (stereo not shown) [Example 43, Benzyl 8-(4-(trifluoromethyl)phenyl)-1,7-naphthyridine-7(8H)-carboxylate]
CCOC(=O)N1C=Cc2cccnc2C1c1ccc(F)cc1 (stereo not shown) [Example 44, Ethyl 8-(4-fluorophenyl)-1,7-naphthyridine-7(8H)-carboxylate]
CCOC(=O)N1CCc2cccnc2C1c1ccc(F)cc1 (stereo not shown) [Example 45, Ethyl 8-(4-fluorophenyl)-5,6-dihydro-1,7-naphthyridine-7(8H)-carboxylate]
O=C(Nc1ccc(F)cc1)N1CCc2cccnc2C1c1ccc(F)cc1 (stereo not shown) [Example 46, N,8-Bis(4-fluorophenyl)-5,6-dihydro-1,7-naphthyridine-7(8H)-carboxamide]
O=C(Nc1ccc(F)cc1)N1CCc2cccnc2C1c1ccc(-c2ccccc2)cc1 (stereo not shown) [Example 47, N-(4-Fluorophenyl)-8-(4-biphenyl)-5,6-dihydro-1,7-naphthyridine-7(8H)-carboxamide]
O=C(Nc1ccc(F)cc1)N1CCc2c(-c3ccc(F)cc3)ccnc2[C@H]1c1ccc(C(F)(F)F)cc1 [Example 54, (R)—N,4-bis(4-fluorophenyl)-8-(4-(trifluoromethyl)phenyl)-5,6-dihydro-1,7-naphthyridine-7(8H)-carboxamide]
Cc1ccnc2c1CCN(C(=O)Nc1ccc(F)cc1)[C@@H]2c1ccc(C(F)(F)F)cc1 [Example 55, (R)—N-(4-fluorophenyl)-4-methyl-8-(4-(trifluoromethyl)phenyl)-5,6-dihydro-1,7-naphthyridine-7(8H)-carboxamide]

— patent US20090082358A1, “Vanilloid receptor ligands and their use in treatments” (priority 2007, published 2009)
